Measured values taken from US10774096B2, “4-substituted benzoxaborole compounds and uses thereof” (GLAXOSMITHKLINE INTELLECTUAL PROPERTY (NO.2) LIMITED, priority 2015, dated 2020).
Values after ≈ are worked out from the molar mass of the structure shown. Values joined by “and” are separate entries in the source; they are usually repeats but may differ in a detail not shown here. Equal entries are not always repeated. Structures can show the parent of a compound that is named as a salt. Where two headings read alike, the source gives them in different places.

What was measured:
Mtb H37Rv = assay: MIC determination against mycobacteria (resazurin); format: cell-based, M. tuberculosis; settings: for Selectivity Index (A/B): HepG2 Tox50 (A) / Mtb H37Rv MIC (B); for MIC: Mycobacterium tuberculosis, read-out: Mtb H37Rv MIC (B)
HepG2 cells = assay: HepG2 cytotoxicity assay (resazurin, 48 h); format: cell-based, human
Experimental: HepG2 cells (HB-8065) were fed fresh medium (Essential Minimum Eagle Medium, EMEM, supplemented with 5% fetal calf serum and 2 mM L-glutamine) the day before subculturing the plates. On the day of plate seeding, a cell suspension of 100,000 cells/mL in culture medium was prepared. Cell suspension (100 uL) was added in each well of a black 96-well microplate with clear bottom, collagen coated, (Becton Dickinson) except in column 11, that was dispensed only 100 uL of culture medium. The plates were incubated for 24 h. It was made up a range of 10 doses of test substances by preparing serial dilutions 1:2 from the stock solution in 100% DMSO and made a dilution of 1:200 of each dose in medium, to achieve a final concentration of 0.5% of DMSO. After 24 h, culture medium was removed from the plate and 150 uL of test compound dilutions were added in two replicates and 150 uL of 0.5% DMSO in culture medium to columns 11 and 12 (blank control). Plates were incubated for 48 and at 37° C., 5% CO2, 95% relative humidity. The medium was then removed and 200 uL of fresh culture medium was added and 50 uL of Resazurin solution to each well and incubated for 1 h and a half. Plates were removed from incubator to allow the fluorescence to stabilise at room temperature protected from light for 15 min. For read out of viability of cells we used Resazurine (BDH). Resazurin is used as an oxidation-reduction indicator that yields a colorimetric change and a fluorescent signal in response to metabolic activity. As cell grows, metabolic activity results in a chemical reduction of Resazurin indicated by a change from non-fluorescent blue to the reduced fluorescent pink form. The degree of Resazurin fluorescence is therefore, an indicator of the number of viable cells in the culture system. Fluorescence was measured at an excitation wavelength of 515 nm and an emission wavelength of 590 nm in a Microplate reader 1420 Multilabel HTS counter, Victor 2, (Wallac).
The fluorescence value of each well is corrected by subtracting the background value (average of column 11) from the absolute value. The percentages of inhibition are calculated relatively to the DMSO control wells (average of column 12). For each compound, the average value of the duplicate samples is calculated and the curve is fitted to Sigmoidal dose-response (variable slope) nonlinear regression curve adjustment (GraphPad) in order to calculate the IC50 (Tox50).

Mtb LeuRS = Mtb LeuRS (Mycobacterium tuberculosis, UniProt P9WFV1); assay: LeuRS aminoacylation assay, IC50 determination; format: biochemical, M. tuberculosis
Chain of Mtb LeuRS (P9WFV1 whole entry): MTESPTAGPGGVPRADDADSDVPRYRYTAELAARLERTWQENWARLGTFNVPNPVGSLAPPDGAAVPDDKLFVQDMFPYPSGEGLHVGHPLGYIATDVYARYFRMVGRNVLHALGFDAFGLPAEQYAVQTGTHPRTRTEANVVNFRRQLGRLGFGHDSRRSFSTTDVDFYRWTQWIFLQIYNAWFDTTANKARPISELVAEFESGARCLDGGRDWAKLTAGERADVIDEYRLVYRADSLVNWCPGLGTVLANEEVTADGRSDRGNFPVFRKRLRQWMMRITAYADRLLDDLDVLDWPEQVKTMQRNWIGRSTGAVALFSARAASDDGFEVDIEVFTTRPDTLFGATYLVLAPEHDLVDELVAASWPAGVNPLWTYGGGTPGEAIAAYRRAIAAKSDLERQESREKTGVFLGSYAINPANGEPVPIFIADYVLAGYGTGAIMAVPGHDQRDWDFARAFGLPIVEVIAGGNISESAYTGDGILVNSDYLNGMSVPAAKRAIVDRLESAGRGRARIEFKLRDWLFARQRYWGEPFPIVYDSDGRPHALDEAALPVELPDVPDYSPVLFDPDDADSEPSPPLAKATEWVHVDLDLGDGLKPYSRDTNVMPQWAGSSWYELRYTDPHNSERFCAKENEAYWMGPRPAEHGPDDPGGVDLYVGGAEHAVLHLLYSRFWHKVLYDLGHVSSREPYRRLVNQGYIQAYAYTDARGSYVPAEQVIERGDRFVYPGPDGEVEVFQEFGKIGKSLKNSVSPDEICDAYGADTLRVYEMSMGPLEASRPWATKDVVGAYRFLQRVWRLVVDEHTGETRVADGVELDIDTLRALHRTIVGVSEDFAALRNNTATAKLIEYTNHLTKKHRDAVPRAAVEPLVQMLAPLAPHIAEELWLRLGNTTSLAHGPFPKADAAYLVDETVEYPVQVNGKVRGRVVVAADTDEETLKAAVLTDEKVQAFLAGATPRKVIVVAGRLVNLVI
Experimental: For biochemical analyses an N-terminal six histidine-tagged LeuRS was over-expressed in Escherichia coli which were E. coli codon-optimised (GenScript, Piscataway N.J., USA), from human mitochondria and cytoplasm, and M. tuberculosis. N-terminal six histidine-tagged LeuRS proteins were over-expressed and purified according to Novagen (Madison, Wis., USA) using an E. coli BL21(DE3) T7 RNA polymerase over-expression strain.
Experiments were performed in 96-well microtiter plates, using 80 μL reaction mixtures containing 50 mM HEPES-KOH (pH 8.0), 30 mM MgCl2 30 mM KCl, 13 μM L-[^14C]leucine (306 mCi/mmol, Perkin-Elmer), 15 uM total E. coli tRNA (Roche, Switzerland), 0.02% (w/v) BSA, 1 mM DTT, 0.2 μM LeuRS and 4 mM ATP at 30° C. Reactions were started by the addition of 4 mM ATP. After 7 minutes, reactions were quenched and tRNA was precipitated by the addition of 50 μL of 10% (w/v) TCA and transferred to 96-well nitrocellulose membrane filter plates (Millipore Multiscreen HTS, MSHAN4B50). Each well was then washed three times with 100 μL of 5% TCA. Filter plates were then dried under a heat lamp and the precipitated L-[^14C]leucine tRNALeu were quantified by liquid scintillation counting using a Wallac MicroBeta Trilux model 1450 liquid scintillation counter (PerkinElmer, Waltham, Mass., USA). The only difference was with the human cytoplasmic LeuRS when we used tRNA isolated from Brewer's Yeast (Roche Diagnostics GmbH).
Reactions were initiated by the addition of 4 mM ATP. Reactions were stopped after 7 minutes then precipitated and counted to quantify radioactivity. IC50 values were determined using the Graphpad Prism software package (Graphpad Software Inc. (La Jolla, Calif., USA).

P. aeruginosa PA01 = assay: General antimicrobial activity assay (CLSI broth microdilution), MIC; format: cell-based
Experimental: (§1) Whole-cell antimicrobial activity was determined by broth microdilution using the Clinical and Laboratory Standards Institute (CLSI) recommended procedure, Document M7-A7, “Methods for Dilution Susceptibility Tests for Bacteria that Grow Aerobically”.
(§2) Table 1 provides MIC values against bacterial strains K12; E. coli K12 tolC/Tn10; A. baumannii ATCC 17978; and P. aeruginosa PA01 for comparator compounds (C1-C15) shown in Table 4 and for G26-CH3. […] Similarly, compound G26-CH3 (Example 2) has poor activity against these Gram negative bacteria.

E. coli K12 = assay: as above; format: cell-based
Experimental: as §1, §2

A. baumannii ATCC 17978 = assay: as above; format: cell-based
Experimental: as §1, §2

Human cyto LeuRS = Human cyto LeuRS (Homo sapiens, UniProt Q9P2J5); assay: LeuRS aminoacylation assay, IC50 determination; format: biochemical; settings: tRNA from Brewer's Yeast
Chain of Human cyto LeuRS (Q9P2J5 whole entry): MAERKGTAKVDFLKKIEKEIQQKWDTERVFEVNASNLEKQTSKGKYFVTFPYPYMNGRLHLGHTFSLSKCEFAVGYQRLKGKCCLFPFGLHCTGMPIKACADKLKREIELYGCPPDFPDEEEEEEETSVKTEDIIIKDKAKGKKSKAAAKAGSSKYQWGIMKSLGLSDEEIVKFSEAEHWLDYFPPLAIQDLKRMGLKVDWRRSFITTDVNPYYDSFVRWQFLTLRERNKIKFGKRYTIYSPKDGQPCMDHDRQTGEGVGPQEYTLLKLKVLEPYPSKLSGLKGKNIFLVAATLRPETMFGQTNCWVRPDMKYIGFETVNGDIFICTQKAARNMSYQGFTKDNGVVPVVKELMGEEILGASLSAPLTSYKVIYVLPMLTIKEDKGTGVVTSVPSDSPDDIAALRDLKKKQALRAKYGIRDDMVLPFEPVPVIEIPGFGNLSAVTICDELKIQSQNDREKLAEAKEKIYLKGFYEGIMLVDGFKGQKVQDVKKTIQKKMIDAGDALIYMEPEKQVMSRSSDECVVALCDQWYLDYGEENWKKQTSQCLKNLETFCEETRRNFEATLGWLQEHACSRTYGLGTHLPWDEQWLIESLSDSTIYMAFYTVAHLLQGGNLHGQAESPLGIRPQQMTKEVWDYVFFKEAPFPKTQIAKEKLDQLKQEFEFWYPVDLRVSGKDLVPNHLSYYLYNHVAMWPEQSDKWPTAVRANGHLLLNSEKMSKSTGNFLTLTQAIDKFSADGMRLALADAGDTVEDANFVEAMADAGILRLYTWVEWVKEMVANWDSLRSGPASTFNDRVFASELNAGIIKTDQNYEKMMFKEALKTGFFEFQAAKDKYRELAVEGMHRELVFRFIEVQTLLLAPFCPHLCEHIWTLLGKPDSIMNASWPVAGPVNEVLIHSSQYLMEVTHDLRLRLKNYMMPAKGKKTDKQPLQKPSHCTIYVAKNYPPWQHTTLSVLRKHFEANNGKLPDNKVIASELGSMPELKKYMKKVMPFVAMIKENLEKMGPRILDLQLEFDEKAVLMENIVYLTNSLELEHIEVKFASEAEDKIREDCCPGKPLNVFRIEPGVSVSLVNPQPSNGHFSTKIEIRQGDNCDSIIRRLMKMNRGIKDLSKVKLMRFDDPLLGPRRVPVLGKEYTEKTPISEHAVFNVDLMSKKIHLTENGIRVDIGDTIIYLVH

[1] = system: pathogenic Gram negative bacteria; assay: General antimicrobial activity assay, summary in words for the panel; format: cell-based
Experimental: as §1, §2

S. aureus ATCC 29213 = assay: General antimicrobial activity assay (CLSI broth microdilution), MIC; format: cell-based; design: unit not given beside the values
Experimental: as §1

E. coli K12 tolC::Tn10 = assay: as above; format: cell-based; settings: efflux pump deficient E. coli
Experimental: as §1, §2

S. pneumoniae ATCC 6301 = assay: as above; format: cell-based
Experimental: as §1

[2] = system: mammalian cellular protein synthesis; assay: Inhibition of protein synthesis in mammalian cells; format: cell-based
[3] = M. tuberculosis standard strain H37Rv

## CC1(C)COB2OC(CN)c3cccc(c32)O1 (centres unmarked) [Example C10-H]
Mtb H37Rv
  Selectivity Index (A/B): 10
HepG2 cells; human
  HepG2 cell 48 h Tox50 (A): >50 µM

## CC1(C)COc2c(Cl)ccc3c2B(OC3CN)O1 (centres unmarked) [Example C8-Cl]
Mtb H37Rv
  Selectivity Index (A/B): 10
HepG2 cells; human
  HepG2 cell 48 h Tox50 (A): >50 µM

## NC[C@H]1OB2OCCOc3c(Cl)ccc1c32 [Example C13-Cl]
Mtb LeuRS; read-out: Mtb LeuRS IC50
  IC50: 2.16 µM
Mtb H37Rv
  Selectivity Index (A/B): >10
Mtb H37Rv; H37RV
  MIC: 5 µM (≈ 1.2 µg/mL)
HepG2 cells; human
  HepG2 cell 48 h Tox50 (A): >50 µM

## CC1COc2cccc3c2B(O1)OC3CN (centres unmarked) [Example C11-H]
Mtb H37Rv; H37RV
  MIC: 1.56 µM (≈ 0.342 µg/mL)
P. aeruginosa PA01
  MIC: P. aeruginosa PA01: 2 µg/mL (≈ 9.13 µM)
E. coli K12
  MIC: E. coli K12: 2 µg/mL (≈ 9.13 µM)
A. baumannii ATCC 17978
  MIC: A. baumannii ATCC 17978: 4 µg/mL (≈ 18.3 µM)
HepG2 cells; human
  HepG2 cell 48 h Tox50 (A): > 50 µM
HepG2 cells; meaning of bracket not explained
  HepG2 cell 48 h, percentage in brackets beside Tox50: 40%

## NC[C@H]1OB2OCCOc3ccc(-c4cccs4)c1c32 [Example 4, (S)-(3-(thiophen-2-yl)-7,8-dihydro-2H-1,6,9-trioxa-9a-borabenzo[cd]azulen-2-yl)methanamine]
Mtb LeuRS; read-out: Mtb LeuRS IC50
  IC50: 300 µM
Mtb H37Rv; H37RV
  MIC: 40.1 µM (≈ 11.5 µg/mL)

## CCOc1ccc(Cl)c2c1B(O)O[C@@H]2CN [Example C6-Cl]
Mtb H37Rv
  Selectivity Index (A/B): 363
Mtb H37Rv; [3]
  MIC: 0.1 µM (≈ 0.0241 µg/mL)
HepG2 cells
  HepG2 cell 48 h Tox50 (A): 36.3 µM

## NCCOc1cccc2c1B(O)OC2 [Example C3-H]
Mtb H37Rv
  Selectivity Index (A/B): >0.8
Mtb H37Rv; [3]
  MIC: 62 µM (≈ 12 µg/mL)
HepG2 cells
  HepG2 cell 48 h Tox50 (A): >50 µM

## NC[C@H]1OB2OCCOc3c(Cl)cc(Cl)c1c32 [Example C14-Cl2]
Mtb H37Rv
  Selectivity Index (A/B): >10
HepG2 cells; human
  HepG2 cell 48 h Tox50 (A): >50 µM

## CC1(C)COc2cccc3c2B(OC3CN)O1 (centres unmarked) [Example C12-H]
P. aeruginosa PA01
  MIC: P. aeruginosa PA01: 16 µg/mL (≈ 68.6 µM)
E. coli K12
  MIC: E. coli K12: 4 µg/mL (≈ 17.2 µM)
A. baumannii ATCC 17978
  MIC: A. baumannii ATCC 17978: 4 µg/mL (≈ 17.2 µM)
HepG2 cells; human
  HepG2 cell 48 h Tox50 (A): 24.5 µM

## c1cc2c3c(c1)OCCOB3OC2 [Example C1-H]
Mtb H37Rv; [3]
  MIC: 31 µM (≈ 5.46 µg/mL)

## CC1(C)COB2OC(CN)c3c(Cl)ccc(c32)O1 (centres unmarked) [Example C9-Cl]
Mtb H37Rv
  Selectivity Index (A/B): >10
Mtb H37Rv; listed as C9-CI
  Selectivity Index (A/B): 10
Mtb H37Rv; H37RV
  MIC: 5 µM (≈ 1.34 µg/mL)
HepG2 cells; human
  HepG2 cell 48 h Tox50 (A): >50 µM

## CCOc1ccc(Br)c2c1B(O)O[C@@H]2CN [Example C4-Br]
Mtb H37Rv
  Selectivity Index (A/B): 320
Mtb H37Rv; [3]
  MIC: 0.1 µM (≈ 0.0286 µg/mL)
HepG2 cells
  HepG2 cell 48 h Tox50 (A): 32 µM
Human cyto LeuRS
  IC50: 73 µM and 67 µM

## CC1COc2c(Cl)cc(Cl)c3c2B(O1)OC3CN (centres unmarked) [Example C7-Cl2]
Mtb H37Rv
  Selectivity Index (A/B): >20
Mtb H37Rv; H37RV
  MIC: 2.5 µM (≈ 0.72 µg/mL)
HepG2 cells; human
  HepG2 cell 48 h Tox50 (A): >50 µM

## NC[C@H]1OB2OCCOc3ccc(-c4ccccc4)c1c32 [Example 3, (S)-(3-phenyl-7,8-dihydro-2H-1,6,9-trioxa-9a-borabenzo[cd]azulen-2-yl)methanamine hydrochloride]
Mtb LeuRS; read-out: Mtb LeuRS IC50
  IC50: 12 µM
Mtb H37Rv; H37RV
  MIC: 8.75 µM

## NCC1OB2OCCOc3cccc1c32 (racemic) [Example C2-H]
Mtb H37Rv; H37RV
  MIC: 1.88 µM (≈ 0.385 µg/mL)
P. aeruginosa PA01
  MIC: P. aeruginosa PA01: 2 µg/mL (≈ 9.76 µM)
E. coli K12
  MIC: E. coli K12: 2 µg/mL (≈ 9.76 µM)
A. baumannii ATCC 17978
  MIC: A. baumannii ATCC 17978: 2 µg/mL (≈ 9.76 µM)
HepG2 cells; human
  HepG2 cell 48 h Tox50 (A): >50 µM

## CCOc1cccc2c1B(O)O[C@@H]2CN [Example C5-H]
Mtb H37Rv
  Selectivity Index (A/B): 3
Mtb H37Rv; [3]
  MIC: 0.6 µM (≈ 0.124 µg/mL)
HepG2 cells
  HepG2 cell 48 h Tox50 (A): 1.8 µM

## Cc1ccc2c3c1[C@@H](CN)OB3OCCO2 [Example 2, (S)-(3-methyl-7,8-dihydro-2H-1,6,9-trioxa-9a-borabenzo[cd]azulen-2-yl)methanamine]
Mtb LeuRS
  IC50: 0.53 µM
  activity against leucyl tRNA synthetase from M. tuberculosis: good activity
[1]
  activity against Gram negative bacteria: poor activity
S. aureus ATCC 29213
  MIC S. aureus ATCC 29213: >64
Mtb H37Rv; listed as Example 2 G26-CH3
  Selectivity Index (A/B): 4853 and > 4850
Mtb H37Rv; H37RV
  MIC: 0.2 µM (≈ 0.0438 µg/mL)
P. aeruginosa PA01
  MIC: P. aeruginosa PA01: >64 µg/mL
E. coli K12
  MIC: E. coli K12: >64 µg/mL
E. coli K12 tolC::Tn10
  MIC: E. coli K12 tolC::Tn10: >64 µg/mL
A. baumannii ATCC 17978
  MIC: A. baumannii ATCC 17978: >64 µg/mL
S. pneumoniae ATCC 6301
  MIC: S. pneumoniae ATCC 6301: >64
HepG2 cells; human
  HepG2 cell 48 h Tox50 (A): 971 µM
[2]
  impact on mammalian cellular protein synthesis: low impact
[2]; mammalian cells, read-out: Cell Prot Syn IC50
  IC50: > 600 µM
Human cyto LeuRS
  IC50: 171 µM
